Assay results as given in patent publication US7491832B2, “Sulfonate compound and fluorescent probe using the same” (Osaka Industrial Promotion Organization, priority 2003, dated 2009).

Experiments:
[1] = system: Chlamydomonas reinhardtii cells; experiment: fluorescence response of probe-loaded alga cells stimulated with Cu2+, PQ or MB under light or in the dark; format: cell-based; details: FIG. 1; for fluorescence response of loaded cells (in words) / fluorescence increment (in words) / selectivity for Cu2+ plus light conditions over PQ and MB (in words): probe 25 μM; for fluorescence response of loaded cells (in words): incubation under irradiation with light in the presence of Cu2+, 60 minutes; for fluorescence increment (in words): Cu2+ and irradiation with light
Text: Photic stimulation can cause oxidative stress in green algae. Stimulation with Cu^2+ causes intracellular generation of various ROS such as superoxides, hydrogen peroxide, and hydroxyl radicals. Furthermore, when alga cells are activated specifically by paraquat (PQ) or methylene blue (MB), oxidative stress can be caused by the generation of a superoxide or ^1O2. […] In order to load alga cells with the compounds 1a, 1b, and 1c, the derivatives 2a, 2b, and 2c (Scheme 3) as acetylated forms of the compounds 1a, 1b, and 1c were used.
More specifically, first, the compounds 2a, 2b, and 2c respectively were dissolved in DMSO, thus obtaining 10 mM stock solutions of the respective compounds. Next, Chlamydomonas reinhardtii (IAM C-238) cultured by an ordinary method was inoculated into 3 ml of an MBM culture solution. Thereafter, the MBM culture solution was loaded with 7.5 μl of each of the stock solutions of the compounds 2a, 2b, and 2c in the dark at 25° C. for 30 minutes. Thus, probe-loaded cell suspensions were prepared. Furthermore, a 96-well tissue culture plate was provided, and 50 μl of a MBM solution containing the indicated concentration of CuCl2, PQ, or […] was added to the plate. The probe-loaded cell suspension (50 μl) was inoculated to the plate and then incubated under irradiation with light or in the dark. After 60 minutes, fluorescence in the cells was measured using a fluorescence measuring device (trade name “CytoFluor II multiwell fluorescence plate reader”, PerSeptive Biosystems, USA). For the measurement, an excitation filter was set at 485±20 nm and an emission filter was set at 530±25 nm.
FIG. 1 contains graphs showing the correlation between a concentration and a fluorescence increment when the fluorescence response was measured by loading Chlamydomonas reinhardtii cells with the compound 2a, 2b, or 2c (25 μM) or DCFH-DA (50 μM) in the dark at 25° C. for 30 minutes and incubating them in 96-well microplates under irradiation with light or in the dark in the presence of Cu^2+, PQ, or MB for 60 minutes. In FIG. 1, an empty circle indicates the result obtained when the incubation was carried out under irradiation with light and a solid circle indicates the result obtained when the incubation was carried out in the dark.

[2] = 96-well microplate assay, fluorescence response to H2O2; details: for response to H2O2 (in words): 96-well microplate assay; for detection limit for H2O2: 150 μl probe solution, 25° C., 60 minutes, RSD n=8; for detection limit for H2O2 / Fluorescence Intensity (RFU), H2O2: HEPES pH 7.4; for Fluorescence Intensity (RFU), H2O2: value minus intensity in the absence of H2O2, probe 1a 25 μM, 1b and 1c 5 μM; for slope of the linear calibration curve: H2O2 calibration, detection limit to 92.3 nmol; for upper end of the linear calibration range: linear from the detection limit upward
Description: In this assay, a DMSO solution of the compound 1a (10 mM), a DMSO solution of the compound 1b (2 mM), and a DMSO solution of the compound 1c (2 mM) were provided first and then these solutions were diluted 400-fold with a HEPES buffer solution (pH 7.4, 10 mM). Thus, probe solutions of the respective compounds were prepared. In the respective probe solutions, the concentration of the compound 1a was 25 μM, the concentration of the compound 1b was 5 μM, and the concentration of the compound 1c was 5 μM. Then, 150 μl of each of the probe solutions was allowed to react with H2O2 water (0.92 mM, 10 μl) at 25° C. for 60 minutes. The detection limits of the compounds 1a, 1b, and 1c were 46.0 (RSD, n=8; 1.2%), 23.1 (0.5%), and 4.6 (1.0%) pmol, respectively, which are all acceptable for cellular level detection. With regard to each of the compounds 1a, 1b, and 1c, a linear calibration curve with a correlation coefficient of at least 0.999 was obtained when the detected value was in the range from the detection limit to 92.3 nmol.
(§1) The fluorescence response to H2O2 achieved by each of the thus-obtained compounds 1a, 1b, and 1c was compared with that to HO. (a hydroxyl radical) and that to O2^−. (a superoxide). As a source of HO., the Fenton reaction between H2O2 (1 mM, 10 μl) and Fe^2+ (5 mM, 10 μl) was used. On the other hand, O2^−. was generated by causing an enzyme reaction between hypoxanthine (HPX) (1 mM, 10 μl) and xanthine oxidase (XO) (0.26 U/ml, 10 μl).
(§2) In Table 1, fluorescence responses observed after reacting the compounds 1a, 1b, and 1c with H2O2, HO., or O2^−. were compared with each other. Numbers in Table 1 represent the fluorescence intensity (RFU). Note here that the RFU is a value obtained by subtracting a fluorescence intensity obtained in the absence of H2O2 or HPX from the measured value.

[3] = microplate assay, fluorescence response to HO. from the Fenton reaction (H2O2 + Fe2+); details: for Fluorescence Intensity (RFU), H2O2 + Fe^2+: H2O2 (1 mM, 10 μl) + Fe2+ (5 mM, 10 μl) as HO. source, blank subtracted
Description: as §1, §2

[4] = microplate assay, fluorescence response in the HPX-XO system (O2-. source), with or without catalase or SOD; details: for Fluorescence Intensity (RFU), HPX + XO + catalase: HPX + XO with catalase (5000 U/ml, 10 μl); for Fluorescence Intensity (RFU), HPX + XO + catalase / Fluorescence Intensity (RFU), HPX + XO + SOD: blank subtracted; for Fluorescence Intensity (RFU), HPX + XO + SOD: HPX + XO with superoxide dismutase (10 μl); for fluorescence response in the HPX-XO system on addition of catalase (in words): catalase 5000 U/ml; for fluorescence response in the HPX-XO system on addition of catalase (in words) / fluorescence response in the HPX-XO system in the presence of SOD (in words): 10 μl; for Fluorescence Intensity (RFU), HPX + XO: hypoxanthine (1 mM, 10 μl) + xanthine oxidase (0.26 U/ml, 10 μl), blank without HPX subtracted; for fluorescence response in the HPX-XO system in the presence of SOD (in words): superoxide dismutase
Description: as §1, §2

[5] = microplate assay of the acetylated forms as hydrogen peroxide-detecting probe (esterase requirement); details: microplate assay similar to that of compounds 1

| Structure (SMILES) | Fluorescence Intensity (RFU), HPX + XO + catalase [4] [RFU] | Fluorescence Intensity (RFU), HPX + XO + SOD [4] [RFU] | fluorescence response in the HPX-XO system on addition of catalase (in words) [4] | Fluorescence Intensity (RFU), HPX + XO [4] [RFU] | fluorescence response in the HPX-XO system in the presence of SOD (in words) [4] | requirement of esterase to serve as hydrogen peroxide-detecting probe (in words) [5] | detection of ROS on Cu2+ stimulation (in words) ([1]; DCFH-DA 50 μM) | detection of oxidative stress caused by PQ and MB (in words) ([1]; DCFH-DA 50 μM) | response to H2O2 (in words) [2] | detection limit for H2O2 [2] [pmol] | Fluorescence Intensity (RFU), H2O2 [2] [RFU] | slope of the linear calibration curve [2] [au/nmol] | upper end of the linear calibration range [2] [nmol] | response to HO. compared with that to H2O2 (in words) [3] | Fluorescence Intensity (RFU), H2O2 + Fe^2+ [3] [RFU] | fluorescence response of loaded cells (in words) [1] | fluorescence increment (in words) [1] | selectivity for Cu2+ plus light conditions over PQ and MB (in words) [1] |
| --- | --- | --- | --- | --- | --- | --- | --- | --- | --- | --- | --- | --- | --- | --- | --- | --- | --- | --- |
| CC(=O)Oc1cc2c(cc1Cl)C(c1ccccc1C(=O)O)c1cc(Cl)c(OC(C)=O)cc1O2 [DCFH-DA, reference compound] |  |  |  |  |  |  | detected ROS generated by the Cu^2+ stimulation | detected the oxidative stress caused by PQ and MB effectively |  |  |  |  |  |  |  |  |  |  |
| O=C(O)c1ccccc1-c1c2ccc(=O)cc-2oc2cc(OS(=O)(=O)c3c(F)c(F)c(F)c(F)c3F)ccc12 [Compound 1a] | −49 | 899 | eliminated completely | 566 | maintained or increased |  |  |  | H2O2 concentration-dependent response | 46.0 | 1150 | 172 | 92.3 | much smaller than those to H2O2 | 28 |  |  |  |
| O=C(O)c1ccccc1-c1c2cc(F)c(=O)cc-2oc2cc(OS(=O)(=O)c3c(F)c(F)c(F)c(F)c3F)c(F)cc12 [Compound 1c] | −44 | 3340 | eliminated completely | 3580 | maintained or increased |  |  |  | H2O2 concentration-dependent response | 4.6 | 4375 | 591 | 92.3 | much smaller than those to H2O2 | 184 |  |  |  |
| O=C(O)c1ccccc1-c1c2cc(Cl)c(=O)cc-2oc2cc(OS(=O)(=O)c3c(F)c(F)c(F)c(F)c3F)c(Cl)cc12 [Compound 1b] | −51 | 1733 | eliminated completely | 1733 | maintained or increased |  |  |  | H2O2 concentration-dependent response | 23.1 | 2193 | 215 | 92.3 | much smaller than those to H2O2 | 195 |  |  |  |

Further lines, with some results ahead:

| Fluorescence Intensity (RFU), HPX + XO + catalase [4] [RFU] | Fluorescence Intensity (RFU), HPX + XO + SOD [4] [RFU] | fluorescence response in the HPX-XO system on addition of catalase (in words) [4] | Fluorescence Intensity (RFU), HPX + XO [4] [RFU] | fluorescence response in the HPX-XO system in the presence of SOD (in words) [4] | requirement of esterase to serve as hydrogen peroxide-detecting probe (in words) [5] | Structure (SMILES) | detection of ROS on Cu2+ stimulation (in words) ([1]; DCFH-DA 50 μM) | detection of oxidative stress caused by PQ and MB (in words) ([1]; DCFH-DA 50 μM) | response to H2O2 (in words) [2] | detection limit for H2O2 [2] [pmol] | Fluorescence Intensity (RFU), H2O2 [2] [RFU] | slope of the linear calibration curve [2] [au/nmol] | upper end of the linear calibration range [2] [nmol] | response to HO. compared with that to H2O2 (in words) [3] | Fluorescence Intensity (RFU), H2O2 + Fe^2+ [3] [RFU] | fluorescence response of loaded cells (in words) [1] | fluorescence increment (in words) [1] | selectivity for Cu2+ plus light conditions over PQ and MB (in words) [1] |
| --- | --- | --- | --- | --- | --- | --- | --- | --- | --- | --- | --- | --- | --- | --- | --- | --- | --- | --- |
|  |  |  |  |  | esterase was necessary | CC(=O)Oc1cc2c(cc1Cl)C1(OC(=O)c3ccccc31)c1cc(Cl)c(OS(=O)(=O)c3c(F)c(F)c(F)c(F)c3F)cc1O2 (stereo not drawn) [Compound 2b] |  |  |  |  |  |  |  |  |  | exhibited fluorescence response in a stimulation concentration-dependent manner |  |  |
|  |  |  |  |  | esterase was necessary | CC(=O)Oc1ccc2c(c1)Oc1cc(OS(=O)(=O)c3c(F)c(F)c(F)c(F)c3F)ccc1C21OC(=O)c2ccccc21 (stereo not drawn) [Compound 2a] |  |  |  |  |  |  |  |  |  | exhibited fluorescence response in a stimulation concentration-dependent manner | great fluorescence increments | high selectivity |
|  |  |  |  |  | esterase was necessary | CC(=O)Oc1cc2c(cc1F)C1(OC(=O)c3ccccc31)c1cc(F)c(OS(=O)(=O)c3c(F)c(F)c(F)c(F)c3F)cc1O2 (stereo not drawn) [Compound 2c] |  |  |  |  |  |  |  |  |  | exhibited fluorescence response in a stimulation concentration-dependent manner | great fluorescence increments | high selectivity |
